For assay [1], the target named is T1, CDK1:Cyclin-B (Homo sapiens, UniProt P06493).
T1 construct: purchased New England Biolabs, Beverly, Mass; 6020; host or cells: insect cells
Kind of assay: CDK1 Screening Assay (33P-ATP FlashPlate). It is filed as biochemical. To be noted: 10 μM ATP; >10 or >100 = less than 50% inhibition at highest concentration tested. The method, then: A kinase reaction mixture was prepared containing 50 mM Tris-HCl pH=8, 10 mM MgCl2, 0.1 mM Na3PO4, 1 mM DTT, 10 μM ATP, 0.025 μM biotinylated histone-H1 peptide substrate and 0.2 μCuries per well ^33P-γ-ATP (2000-3000 Ci/mmol). 70 μL of the kinase reaction mixture was dispensed into each well of a streptavidin coated FlashPlate™ (Cat. # SMP103, NEN, Boston, Mass.). Then 1 μL of test compound stock in 100% DMSO was added to the wells resulting in a final concentration of 1% DMSO in the reaction with a 100 μl final reaction volume.
(§1) Next, CDK1:Cyclin-B protein was diluted in 50 mM Tris-HCl pH=8.0, 0.1% BSA at a concentration of 1 ng per μL and 30 μL (30 ng enzyme per test well) was added to each well to initiate the reaction. The reaction was incubated for one hour at 30° C. At the end of the 1 h incubation, the reaction was terminated by aspirating the mixture from the plate and washing the wells twice with PBS containing 100 mM EDTA. The histone-H1 biotinylated peptide substrate became immobilized on the Flashplate™ and the incorporation of ^33P-γ-ATP was measured by reading the plate on a scintillation counter. Inhibition of the enzymatic activity of CDK1 was measured by observing a reduced amount of ^33P-γ-ATP incorporated into the immobilized peptide.
(§2) VEGF-R (vascular endothelial growth factor receptor-2) is a fusion protein containing a polyhistidine tag at the N-terminus followed by amino acids 786-1343 of the rat VEGF-R2 kinase domain (GenBank Accession #U93306). CDK1 (cyclin dependent kinase 1) was isolated from insect cells expressing both the human CDK1 catalytic subunit and its positive regulatory subunit cyclin B (New England Biolabs, Beverly, Mass., Cat. # 6020). CDK2 in complex with cyclin A is commercially available (Upstate Biotech, Lake Placid, N.Y.). The HER2 (human epidermal growth factor receptor-2) construct contains a polyhistidine tag at the N-terminus followed by 24 additional amino acids and begins at amino acid 676 followed by the remainder of the HER2 cytoplasmic domain.

In assay [2] the target is CDK2:Cyclin-E (Homo sapiens, UniProt P24941). Kind of assay: CDK2 Screening Assay (33P-ATP FlashPlate). Type of assay: biochemical. To be noted: 10 μM ATP; >10 or >100 = less than 50% inhibition at highest concentration tested. How it is done: as §1, with “A kinase reaction mixture was prepared containing 50 mM Tris-HCl pH=8, 10 mM MgCl2, 0.1 mM Na3PO4, 1 mM DTT, 10 μM ATP, 0.025 μM biotinylated histone-H1 peptide substrate and 0.2 μCuries per well ^33P-γ-ATP (2000-3000 Ci/mmol). 70 μL of the kinase reaction mixture was dispensed into the well of a streptavidin coated FlashPlate™ (Cat. # SMP103, NEN, Boston, Mass.). Then 1 μL of test compound stock in 100% DMSO was added to the wells resulting in a final concentration of 1% DMSO in the reaction with a 100 μl final reaction volume. Next,” for “Next,”, “CDK2:Cyclin-E” for “CDK1:Cyclin-B”, “CDK2” for “CDK1”, “peptide. […]” for “peptide.”

Assay [3] deals with T2, HER2 (Homo sapiens, UniProt P04626).
T2 construct: polyhistidine (N)
The assay can be described thus: HER2 Kinase Screening Assay. Type of assay: biochemical. To be noted: 10 μM ATP; >10 or >100 = less than 50% inhibition at highest concentration tested. The method, then: The HER2 kinase assay was carried out as described above for the VEGF-R kinase assay except that the enzyme was replaced with a human epidermal growth factor receptor-2 (HER2) construct contains a polyhistidine tag at the N-terminus followed by 24 additional amino acids and begins at amino acid 676 (Accession #M11730) followed by the remainder of the HER2 cytoplasmic domain.
as §2

Assay [4] has as its system HeLa cervical adenocarcinoma. The assay can be described thus: Inhibition of cell proliferation (14C-thymidine incorporation), HeLa. It is filed as cell-based. How it is done:
(§3) The ability of a test compound to inhibit the proliferation of cell growth was determined by measuring incorporation of ^14C-labelled thymidine into newly synthesized DNA within the cells. This method was used on cell lines derived from carcinomas originating from several tissues such as HeLa cervical adenocarcinoma (American Type Culture Collection (ATCC), Virginia, Cat. #CCL-2), A375 malignant melanoma (ATCC CRL-1619), and HCT-116 colon carcinoma (CCL-247). In this way the effect of a compound on cell growth of cells with many different phenotypes can be determined. Cells were trypsinized and counted and 3000-8000 cells were added to each well of a 96-well CytoStar tissue culture treated scintillating microplate (Amersham #RPNQ0160) in complete medium in a volume of 100 μl. Cells were incubated for 24 hours in complete medium at 37° C. in an atmosphere containing 5% CO2.
(§4) Next, 1 μl of test compound in 100% DMSO was added to the wells of the plate. DMSO only was added to control wells. Cells were incubated for 24 more hours in complete medium at 37° C. in an atmosphere containing 5% CO2. Methyl ^14C-thymidine 56 mCi/mmol (NEN #NEC568 or Amersham #CFA532) was diluted in complete medium and 0.2 uCi/well was added to each well of the CytoStar plate in a volume of 20 ul. The plate was incubated for 24 hours at 37° C. plus 5% CO2 in drug plus ^14C-thymidine. The contents of the plate were discarded into a ^14C radioactive waste container by inverting the plate and the plate was washed twice with 200 μl PBS.
(§5) 200 μl of PBS was added to each well. The top of the plate was sealed with a transparent plate sealer and a white plate backing sealer (Packard #6005199) was applied to the bottom of the plate. The degree of methyl ^14C-thymidine incorporation was quantified on a Packard Top Count.
(Dividing cells build labelled thymidine or BrdU into new DNA.)

Assay [5] deals with HCT-116 colon carcinoma. The assay can be described thus: Inhibition of cell proliferation (14C-thymidine incorporation), HCT116. It is filed as cell-based, human. How it is done:
as §3, §4, §5

The subject of assay [6] is A375 malignant melanoma. The assay can be described thus: Inhibition of cell proliferation (14C-thymidine incorporation), A375. Type of assay: cell-based, human. The method, then: as §3, §4, §5

Like-named read-outs stand apart in the source and are kept apart here.

T1 sequence (P06493 whole entry): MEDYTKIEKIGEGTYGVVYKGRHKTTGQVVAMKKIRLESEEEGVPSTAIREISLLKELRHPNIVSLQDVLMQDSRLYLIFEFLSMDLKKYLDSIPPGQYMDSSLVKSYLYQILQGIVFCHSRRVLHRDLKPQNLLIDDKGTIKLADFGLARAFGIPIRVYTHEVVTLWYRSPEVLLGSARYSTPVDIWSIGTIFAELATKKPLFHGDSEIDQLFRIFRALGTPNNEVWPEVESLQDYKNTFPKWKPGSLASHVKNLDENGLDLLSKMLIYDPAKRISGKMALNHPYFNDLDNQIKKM
T1 sequence (P14635 whole entry partner): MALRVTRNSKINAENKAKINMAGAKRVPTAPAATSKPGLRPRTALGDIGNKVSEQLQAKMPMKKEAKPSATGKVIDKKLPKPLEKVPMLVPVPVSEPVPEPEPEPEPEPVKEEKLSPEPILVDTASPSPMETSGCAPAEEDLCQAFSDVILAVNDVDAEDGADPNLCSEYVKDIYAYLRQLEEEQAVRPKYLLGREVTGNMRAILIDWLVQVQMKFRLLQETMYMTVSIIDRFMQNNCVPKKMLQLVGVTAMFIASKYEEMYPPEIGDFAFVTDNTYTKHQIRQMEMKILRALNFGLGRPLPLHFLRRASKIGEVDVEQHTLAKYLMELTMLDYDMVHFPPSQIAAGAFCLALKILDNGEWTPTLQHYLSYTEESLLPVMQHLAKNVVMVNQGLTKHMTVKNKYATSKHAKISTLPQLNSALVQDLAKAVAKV

For the molecule “4-[5-amino-1-(2,6-difluoro-benzoyl)-1H-[1,2,4]triazol-3-ylamino]-N-propionyl-benzenesulfonamide [Compound 20]”, the IC50 (commonly the point on the concentration scale where inhibition reaches its midpoint) in assay [1] was 1.82 µM; in assay [2], 0.28 µM; in assay [3], not below 10 µM; in assay [4], 58.8 µM; in assay [5], more than 10 µM; in assay [6], more than 10 µM.

As for `Nc1nc(Nc2ccc(S(=O)(=O)NC(=O)CCC(=O)O)cc2)nn1C(=O)c1c(F)cccc1F` [Compound 1, 4-{4-[5-amino-1-(2,6-difluoro-benzoyl)-1H-[1,2,4]triazol-3-ylamino]-benzenesulfonylamino}-4-oxo-butyric acid], the IC50 was 0.49 µM in assay [1]; 0.07 µM in assay [2]; not below 10 µM in assay [3]; 31.9 µM in assay [4] (Homo sapiens); more than 100 µM in assay [5] (Homo sapiens, HCT-116); 20.3 µM in assay [6] (Homo sapiens, A-375).

On to `NCC(=O)NS(=O)(=O)c1ccc(Nc2nc(N)n(C(=O)c3c(F)cccc3F)n2)cc1` [Compound 2, N-(2-amino-acetyl)-4-[5-amino-1-(2,6-difluoro-benzoyl)-1H-[1,2,4]triazol-3-ylamino]-benzenesulfonamide], for which the IC50 is 1.07 µM in assay [1]; 0.12 µM in assay [2]; not below 10 µM in assay [3]; 14.9 µM in assay [4] (Homo sapiens); 37 µM in assay [5] (Homo sapiens, HCT-116); 9.45 µM in assay [6] (Homo sapiens, A-375).

Consider `COCCOCC(=O)NS(=O)(=O)c1ccc(Nc2nc(N)n(C(=O)c3c(F)cccc3F)n2)cc1` [Compound 3, 4-[5-amino-1-(2,6-difluoro-benzoyl)-1H-[1,2,4]triazol-3-ylamino]-N-[2-(2-methoxy-ethoxy)-acetyl]-benzenesulfonamide], for which the IC50 in assay [1] is 1.66 µM; in assay [2] it was 0.25 µM; in assay [3] it was not below 10 µM; in assay [4] (Homo sapiens) it was more than 10 µM; in assay [5] (Homo sapiens, HCT-116), more than 10 µM; in assay [6] (Homo sapiens, A-375), more than 100 µM.

For the molecule `Nc1nc(Nc2ccc(S(=O)(=O)NC(=O)Cn3cnnn3)cc2)nn1C(=O)c1c(F)cccc1F` [Compound 4, 4-[5-amino-1-(2,6-difluoro-benzoyl)-1H-[1,2,4]triazol-3-ylamino]-N-(2-tetrazol-1-yl-acetyl)-benzenesulfonamide], the IC50 in assay [1] was 5.39 µM; in assay [2], 0.43 µM; in assay [3] it was not below 10 µM; in assay [4] (Homo sapiens) it was more than 100 µM; in assay [5] (Homo sapiens, HCT-116), more than 100 µM; in assay [6] (Homo sapiens, A-375) it was more than 100 µM.

In the case of `CN1CCN(CCC(=O)NS(=O)(=O)c2ccc(Nc3nc(N)n(C(=O)c4c(F)cccc4F)n3)cc2)CC1` [Compound 5, 4-[5-amino-1-(2,6-difluoro-benzoyl)-1H-[1,2,4]triazol-3-ylamino]-N-[3-(4-methyl-piperazin-1-yl)-propionyl]-benzenesulfonamide], the IC50 in assay [1] is 1.34 µM; in assay [2], 0.27 µM; in assay [3], not below 10 µM; in assay [4] (Homo sapiens), more than 100 µM; in assay [5] (Homo sapiens, HCT-116), more than 10 µM; in assay [6] (Homo sapiens, A-375), more than 100 µM.

For the molecule `CN(C)CC(=O)NS(=O)(=O)c1ccc(Nc2nc(N)n(C(=O)c3c(F)cccc3F)n2)cc1` [Compound 6, 4-[5-amino-1-(2,6-difluoro-benzoyl)-1H-[1,2,4]triazol-3-ylamino]-N-(2-dimethylamino-acetyl)-benzenesulfonamide], the IC50 in assay [1] is 2.13 µM; in assay [2], 0.32 µM; in assay [3], not below 10 µM; in assay [4] (Homo sapiens) it was more than 10 µM; in assay [5] (Homo sapiens, HCT-116), more than 10 µM; in assay [6] (Homo sapiens, A-375), more than 100 µM.

As for `Nc1nc(Nc2ccc(S(=O)(=O)NC(=O)CCN3CCOCC3)cc2)nn1C(=O)c1c(F)cccc1F` [Compound 7, 4-[5-amino-1-(2,6-difluoro-benzoyl)-1H-[1,2,4]triazol-3-ylamino]-N-(3-morpholin-4-yl-propionyl)-benzenesulfonamide], the IC50 in assay [1] is 1.55 µM; in assay [2] it was 0.12 µM; in assay [3], more than 100 µM; in assay [4] (Homo sapiens), 20.9 µM; in assay [5] (Homo sapiens, HCT-116), 50.8 µM; in assay [6] (Homo sapiens, A-375) it was more than 100 µM.

For `CCOC(=O)CCC(=O)NS(=O)(=O)c1ccc(Nc2nc(N)n(C(=O)c3c(F)cccc3F)n2)cc1` [Compound 8, 4-{4-[5-amino-1-(2,6-difluoro-benzoyl)-1H-[1,2,4]triazol-3-ylamino]-benzenesulfonylamino}-4-oxo-butyric acid ethyl ester], the IC50 in assay [1] is 0.47 µM; in assay [2], 0.06 µM; in assay [3], 1.23 µM; in assay [4] (Homo sapiens) it was 60.2 µM; in assay [5] (Homo sapiens, HCT-116) it was 40.1 µM; in assay [6] (Homo sapiens, A-375), more than 10 µM.

Consider `COCCOCCOCC(=O)NS(=O)(=O)c1ccc(Nc2nc(N)n(C(=O)c3c(F)cccc3F)n2)cc1` [Compound 9, 4-[5-amino-1-(2,6-difluoro-benzoyl)-1H-[1,2,4]triazol-3-ylamino]-N-{2-[2-(2-methoxy-ethoxy)-ethoxy]-acetyl}-benzenesulfonamide], for which the IC50 in assay [1] is 4.69 µM; in assay [2] it was 0.44 µM; in assay [3], more than 100 µM; in assay [4] (Homo sapiens) it was more than 10 µM; in assay [5] (Homo sapiens, HCT-116), more than 100 µM; in assay [6] (Homo sapiens, A-375), more than 10 µM.

Regarding `COCCOCCOCC(=O)Nc1nc(Nc2ccc(S(N)(=O)=O)cc2)nn1C(=O)c1c(F)cccc1F` [Compound 10, N-[2-(2,6-difluoro-benzoyl)-5-(4-sulfamoyl-phenylamino)-2H-[1,2,4]triazol-3-yl]-2-[2-(2-methoxy-ethoxy)-ethoxy]-acetamide], the IC50 in assay [1] was 2.55 µM; in assay [2], 0.3 µM; in assay [3], more than 100 µM; in assay [4] (Homo sapiens) it was more than 100 µM; in assay [5] (Homo sapiens, HCT-116), more than 100 µM; in assay [6] (Homo sapiens, A-375), more than 100 µM.

Source of the values: US7888380B2, “1,2,4-Triazolylaminoaryl (heteroaryl) sulfonamide derivatives” (Janssen Pharmaceutica, N.V., priority 2004, dated 2011).
